Source: PMC12041881, “Tailored phenyl ureas eradicate drug-resistant Mycobacterium tuberculosis by targeting mycolic acid cell wall assembly” (Chemical Science, 2025)
≈ marks a conversion by molar mass, not a printed value. Entries after “also recorded” stand apart in the source; their conditions may differ. Where two headings read alike, the source gives them in different places.

How the values were obtained:
[1] = tested on: M. tuberculosis H37Ra; assay: microbe, parasite or virus in culture; format: cell-based, Mycobacterium tuberculosis; details: for MIC: Mycobacterium tuberculosis, H37RA, read-out: MIC MTB H37Ra
[2] = tested on: three bacterial strains from the mouse microbiota (Oligo-Mouse-Microbiota); assay: MIC measurements in strains from the Oligo-Mouse-Microbiota; format: cell-based
[3] = tested on: WT M. tuberculosis H37Rv; assay: microbe, parasite or virus in culture; format: cell-based
[4] = biological target: MmpL3 (Mycobacterium tuberculosis, UniProt P9WJV5); format: cell-based, M. tuberculosis
Chain of MmpL3 (P9WJV5 whole entry): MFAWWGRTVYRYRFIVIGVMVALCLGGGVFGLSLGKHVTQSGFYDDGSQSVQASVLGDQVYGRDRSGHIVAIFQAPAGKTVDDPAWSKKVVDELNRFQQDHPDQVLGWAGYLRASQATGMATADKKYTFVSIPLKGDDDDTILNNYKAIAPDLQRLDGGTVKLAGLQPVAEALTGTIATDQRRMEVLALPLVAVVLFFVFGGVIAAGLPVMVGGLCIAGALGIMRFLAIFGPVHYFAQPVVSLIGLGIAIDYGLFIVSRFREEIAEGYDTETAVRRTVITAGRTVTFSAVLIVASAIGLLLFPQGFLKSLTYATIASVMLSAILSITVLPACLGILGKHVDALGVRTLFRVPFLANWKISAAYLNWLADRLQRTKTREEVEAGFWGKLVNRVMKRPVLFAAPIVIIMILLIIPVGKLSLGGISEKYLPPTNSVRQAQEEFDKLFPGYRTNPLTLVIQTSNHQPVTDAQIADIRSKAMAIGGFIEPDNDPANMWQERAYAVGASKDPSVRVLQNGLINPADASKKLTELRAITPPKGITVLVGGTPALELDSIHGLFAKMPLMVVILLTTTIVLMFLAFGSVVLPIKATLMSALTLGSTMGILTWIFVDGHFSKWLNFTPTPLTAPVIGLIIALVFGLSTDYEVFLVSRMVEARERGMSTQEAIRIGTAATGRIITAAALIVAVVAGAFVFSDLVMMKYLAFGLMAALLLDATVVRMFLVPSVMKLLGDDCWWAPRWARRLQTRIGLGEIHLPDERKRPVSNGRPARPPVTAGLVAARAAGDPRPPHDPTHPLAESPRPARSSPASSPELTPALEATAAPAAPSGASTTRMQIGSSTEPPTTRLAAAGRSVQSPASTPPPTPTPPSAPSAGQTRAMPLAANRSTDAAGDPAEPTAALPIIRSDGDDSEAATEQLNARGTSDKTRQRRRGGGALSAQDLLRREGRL

[5] = physchem; details: aqueous buffer, kinetic from dmso stock
[6] = tested on: probe-bound proteins in M. tuberculosis H37Ra cells; format: binding; details: for competition of 227-p1 labelling of EphF and EphD: 5 μM 227-p1, competitor in excess (25 μM 227)
[7] = in vivo; design: species or system CD-1 female mice; details: female, CD-1, mouse; for bioavailability: F
Experimental: (DMA), and 95% (20% Solutol HS15 in water).
Blood timepoints were taken
liquid chromatography coupled to tandem mass spectrometry. Pharmacokinetic parameters were
LC-MS/MS analytical methods for PK studies
to create standard curves solutions.
10µLs of control, standard, or
internal standards Labetalol (Sigma Aldrich). Extracts were vortexed for 5 minutes and centrifuged at
with 75 µLs of Milli-Q deionized water.
Multiple-reaction monitoring of […]
Extracts were vortexed for 5 minutes
75 µL of extract was combined
HPLC-MS was performed as previously specified.

[8] = tested on: MTB; assay: Checkerboard assay with ethionamide; format: cell-based, M. tuberculosis; details: combination with ethionamide
[9] = tested on: M. tuberculosis H37Ra cells; format: cell-based
[10] = in vitro; details: mouse, microsomes
[11] = tested on: epoxide hydrolase EphF; format: biochemical, M. tuberculosis
[12] = in vivo; details: female, CD-1, mouse
[13] = tested on: HeLa cells; assay: cells; format: cell-based; details: Homo sapiens
[14] = tested on: Mtb H37Ra proteome; format: cell-based
[15] = i.v. 5 mg kg^−1
[16] = tested on: M. smegmatis DSM43756; assay: MIC / in-house urea library screen against M. smegmatis; format: cell-based; details: read-out: MIC M. smegmatis (Msm)
[17] = tested on: MmpL3 underexpressing (−ATc) Mtb H37Rv; format: cell-based, M. tuberculosis
[18] = tested on: Mtb; details: strain not stated; cited from earlier work
[19] = tested on: LepB; assay: FRET assay with membrane-bound LepB; details: M. smegmatis membranes
[20] = Mycobacterium tuberculosis, H37RV
[21] = HeLa, read-out: MTT assay IC50 95% confidence interval (CI)
[22] = Mycolicibacterium smegmatis, DSM43756

O=C(Nc1ccc(Cl)c(OC(F)(F)F)c1)NC1CCCCC1 [Compound 1]
MIC [1]: 3.13 µM (≈ 1.05 µg/mL)

O=C(Nc1cc(C(F)(F)F)c(Cl)cn1)NC1CCCCC1 [Compound 2]
MIC [1]: > 50 µM

CC1(NC(=O)Nc2ccc(Cl)c(C(F)(F)F)c2)CCCC1 [Compound 3]
MIC MTB H37Ra [1]: 0.39 µM (≈ 0.125 µg/mL)
MIC [1]: 0.4 µM (≈ 0.128 µg/mL)

CC1(NC(=O)Nc2ccc(F)c(C(F)(F)F)c2)CCCC1 [Compound 4]
MIC [1]: 3.13 µM (≈ 0.952 µg/mL)

CC1(NC(=O)Nc2ccccc2)CCCC1 [Compound 5]
MIC [1]: 25 µM (≈ 5.46 µg/mL)

CC1(NC(=O)Nc2ccc(F)c(F)c2F)CCCC1 [Compound 6]
MIC [1]: > 50 µM

CC1(NC(=O)Nc2ccc(F)c(F)c2)CCCC1 [Compound 7]
MIC [1]: 25 µM (≈ 6.36 µg/mL)

CC1(NC(=O)Nc2cc(F)c(F)c(F)c2)CCCC1 [Compound 8]
MIC [1]: 25 µM (≈ 6.81 µg/mL)

O=C(Nc1ccc(Cl)c(C(F)(F)F)c1)NC1CCCC1 [Compound 9]
MIC MTB H37Ra [1]: 3.13 µM (≈ 0.96 µg/mL)
MIC [1]: 3.2 µM (≈ 0.981 µg/mL)

O=C(Nc1ccc(Cl)c(C(F)(F)F)c1)NC1CCC1 [Compound 10]
MIC [1]: 25 µM (≈ 7.32 µg/mL)

O=C(Nc1ccc(Cl)c(C(F)(F)F)c1)NC1CC1 [Compound 11]
MIC [1]: > 50 µM

CC1(NC(=O)Nc2ccc(Cl)c(C(F)(F)F)c2)CCCCC1 [Compound 12]
effect on bacteria from the Oligo-Mouse-Microbiota [2]: not affected
IC50 [3, 20]: 0.11 µM
MIC90 [3, 20]: 0.2 µM (≈ 0.067 µg/mL)
TDM/TMM ratio compared with 227 [4]: even lower TDM/TMM ratios
solubility kinetic at 5 min [5]: 12 µM (≈ 4.02 µg/mL)
competition of 227-p1 labelling of EphF and EphD [6]: weaker competition
MIC MTB H37Ra [1]: 0.10 µM (≈ 0.0335 µg/mL)
MIC [1]: 0.1 µM (≈ 0.0335 µg/mL)

CC1CCCCC1NC(=O)Nc1ccc(Cl)c(C(F)(F)F)c1 (centres unmarked) [Compound 13]
MIC [1]: 0.39 µM (≈ 0.131 µg/mL)

CC1CCCC(NC(=O)Nc2ccc(Cl)c(C(F)(F)F)c2)C1 (centres unmarked) [Compound 14]
MIC [1]: 0.39 µM (≈ 0.131 µg/mL)

CC1CCC(NC(=O)Nc2ccc(Cl)c(C(F)(F)F)c2)CC1 (centres unmarked) [Compound 15]
MIC [1]: 0.39 µM (≈ 0.131 µg/mL)

O=C(Nc1ccc(Cl)c(C(F)(F)F)c1)NC1(CO)CCCCC1 [Compound 16]
MIC [1]: 3.13 µM (≈ 1.1 µg/mL)

O=C(Nc1ccc(Cl)c(C(F)(F)F)c1)NC12CC3CC(CC(O)(C3)C1)C2 [Compound 18]
MIC [1]: 6.25 µM (≈ 2.43 µg/mL)

O=C(Nc1ccc(Cl)c(C(F)(F)F)c1)NC12CC(C1)C2 [Compound 19]
MIC [1]: 12.5 µM (≈ 3.81 µg/mL)

CC1(C)OCC(NC(=O)Nc2ccc(Cl)c(C(F)(F)F)c2)CO1 [Compound 20]
MIC [1]: 3.13 µM (≈ 1.1 µg/mL)

O=C(Nc1ccc(Cl)c(C(F)(F)F)c1)NC1COC2(CCC2)OC1 [Compound 21]
effect on bacteria from the Oligo-Mouse-Microbiota [2]: not affected; also recorded: does not kill
estimated time above MIC [7]: approximately 16 hours
F ([7]; po, 200 mg/kg): 24.3%
AUC ([7]; po, 200 mg/kg): 45.7 µM·h
bioavailability ([7]; po, 200 mg/kg): 25.3%
AUC ([7]; po, 400 mg/kg): 73.3 µM·h
bioavailability ([7]; po, 400 mg/kg): 20.4%
IC50 [3, 20]: 0.85 µM
MIC90 [3, 20]: 1.8 µM (≈ 0.657 µg/mL)
fractional inhibitory concentration (FIC) index [8]: 0.83
TDM/TMM ratio compared with 227 [4]: even lower TDM/TMM ratios
membrane disruption (propidium iodide entry) [9]: Neither 227 nor 21 disrupt the membrane
half-life at 5 µM [10]: 8 min
microsomal CLint at 5 µM [10]: 88 µL/min/mg
EphF inhibition [11]: inhibits EphF, albeit to a lesser extent
AUC ([12]; iv, 5 mg/kg): 4.58 µM·h
Cmax ([12]; iv, 5 mg/kg): 6.27 µM
half-life ([12]; iv, 5 mg/kg): 46.2 min
AUC ([12]; po, 25 mg/kg): 9.54 µM·h
Cmax ([12]; po, 25 mg/kg): 4.04 µM
bioavailability ([12]; po, 25 mg/kg): 42.5%
IC50 [13, 21]: 52 to 97 µM
IC50 ([13]; HeLa cells, 24 h, read-out: IC50 MTT assay): 71 µM
MmpL3 abundance, Student's T-test Difference DMJB-04 0.5 µM vs DMSO ([14]; full proteome, Mtb H37Ra, 0.5 µM): 0.4086
solubility kinetic at 5 min [5]: > 200 µM
competition of 227-p1 labelling of EphF and EphD [6]: weaker competition
MIC MTB H37Ra [1]: 0.78 µM (≈ 0.285 µg/mL)
MIC [1]: 0.8 µM (≈ 0.292 µg/mL)
CD [15]: 3.38 L/kg
Clearance [15]: 50.82 mL/(kg*min]

O=C(Nc1ccc(Cl)c(C(F)(F)F)c1)NC1CCC2(CC1)OCCO2 [Compound 22]
solubility kinetic at 5 min [5]: 112 µM (≈ 42.4 µg/mL)
MIC [1]: 1.56 to 3.13 µM (≈ 0.591 to 1.19 µg/mL)

CC1(NC(=O)Nc2ccc(Cl)c(C(F)(F)F)c2)COC2(CCC2)OC1 [Compound 23]
solubility kinetic at 5 min [5]: 58 µM (≈ 22 µg/mL)
MIC MTB H37Ra [1]: 6.25 to 12.5 µM
MIC [1]: 6.25 µM (≈ 2.37 µg/mL)

C#CCCC1(CCOC(=O)c2ccc(NC(=O)Nc3ccccc3)cc2)N=N1 [Compound 150-pi]
MIC MTB H37Ra [1]: inactive

C#CC1(NC(=O)Nc2ccc(N=[N+]=[N-])cc2)CCCCC1 [Compound 227-p1]
MIC [16, 22]: 6.25 µM (≈ 1.77 µg/mL)
EphD and EphF enrichment by probe ([6]; 5 μM 227-p1, Mtb): significantly enriched
MIC [1]: 25 µM (≈ 7.08 µg/mL)

C#CCCC1(CCOC(=O)c2ccc(NC(=O)NC3CCCCC3)cc2)N=N1 [Compound 227-p2]
MIC [16, 22]: > 50 µM
MIC [1]: > 50 µM

C#CCCC1(CCOC(=O)C2CCC(NC(=O)Nc3ccc(Cl)c(C(F)(F)F)c3)CC2)N=N1 (centres unmarked) [Compound 227-p3]
MIC [16, 22]: > 50 µM
MIC [1]: > 50 µM

O=C(Nc1ccc(Cl)c(C(F)(F)F)c1)NC1CCCCC1 [Compound 227]
MIC [3]: 1.8 µM (≈ 0.577 µg/mL)
IC50 [3, 20]: 1.3 µM
MIC [3, 20]: 1.8 µM (≈ 0.577 µg/mL)
MIC90 [3, 20]: 2.5 µM (≈ 0.802 µg/mL)
membrane disruption (propidium iodide entry) [9]: Neither 227 nor 21 disrupt the membrane
EphF inhibition [11]: strong inhibition
bioavailability ([12]; po, 25 mg/kg): 8.6%
IC50 [13, 21]: 15 to 37 µM
solubility kinetic at 5 min [5]: 55 µM (≈ 17.6 µg/mL)
competition of 227-p1 labelling of EphF and EphD [6]: strongly out-competed; also recorded: out-competed
MIC [1]: 1.56 to 3.13 µM (≈ 0.5 to 1 µg/mL)
Clearance [15]: fast clearance

O=C(Nc1cc(C(F)(F)F)cc(C(F)(F)F)c1)Nc1ccc(Cl)c(OC(F)(F)F)c1 [Compound 275]
MIC [16, 22]: 0.8 µM (≈ 0.373 µg/mL)

CC[C@@H](CO)NCCN[C@@H](CC)CO [Ethambutol]
susceptibility shift in MmpL3 under-expressing strain [17]: no significant shifts

O=C(Nc1ccc2c(c1)OC(F)(F)O2)Nc1ccc(Cl)c(C(F)(F)F)c1 [PK150]
MIC against Mtb [18]: 6.25 µM (≈ 2.47 µg/mL)
MIC [16]: 3.1 µM (≈ 1.22 µg/mL)
modulation of LepB activity [19]: not a target; also recorded: did not show any inhibition

CC(C)=CCC/C(C)=C/CNCCNC1C2CC3CC(C2)CC1C3 (centres unmarked) [SQ109, reference compound]
dysregulated in FP? ([14]; full proteome (FP), protein Rv3587c (O53572), probable conserved membrane protein): slightly upregulated with SQ109 treatment
